From ChEMBL document CHEMBL5465560, “Selectivity Literature for EUbOPEN Chemogenomic Library” (2024)
Blank lines part the entries; values can stand above or below the molecule they belong to.

Legend:
[1] = target: Serine/threonine-protein kinase RIO2 (Homo sapiens) (UniProt Q9BVS4); conditions: at 10 µM
[2] = target: DNA (cytosine-5)-methyltransferase 1 (Homo sapiens) (UniProt P26358); experiment: Selectivity interaction (Methyltransferase screen (radiometric assays, panel of 8 PRMTs, 21 protein lysine methyltransferases, 3 DNA methyltransferases, and one RNA methyltransferase)) EUB0000272b DNMT1
[3] = target: Serine/threonine-protein kinase PAK 2 (Homo sapiens) (UniProt Q13177); experiment: Selectivity interaction (KinomeScan (DiscoverX)) EUB0000092b PAK2; conditions: at 10 µM
[4] = target: T1, Serine/threonine-protein kinase ULK3 (Homo sapiens) (UniProt Q6PHR2); experiment: Selectivity interaction (KinomeScan (DiscoverX)) EUB0000045b ULK3
T1 sequence (whole entry): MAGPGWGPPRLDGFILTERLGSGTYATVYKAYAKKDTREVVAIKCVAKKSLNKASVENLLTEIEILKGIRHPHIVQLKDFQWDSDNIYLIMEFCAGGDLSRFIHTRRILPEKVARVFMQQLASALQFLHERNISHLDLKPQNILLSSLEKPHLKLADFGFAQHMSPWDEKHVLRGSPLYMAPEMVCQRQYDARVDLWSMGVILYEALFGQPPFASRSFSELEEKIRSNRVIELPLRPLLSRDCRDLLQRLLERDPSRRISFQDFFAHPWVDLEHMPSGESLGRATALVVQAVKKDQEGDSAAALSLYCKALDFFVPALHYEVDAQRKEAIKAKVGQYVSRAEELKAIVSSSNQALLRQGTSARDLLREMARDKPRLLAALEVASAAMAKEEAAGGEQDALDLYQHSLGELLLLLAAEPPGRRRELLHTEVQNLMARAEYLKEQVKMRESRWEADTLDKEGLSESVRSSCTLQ

[5] = target: MAP/microtubule affinity-regulating kinase 3 (Homo sapiens) (UniProt P27448); experiment: Selectivity interaction (ActivX KiNativ screen (ex vivo kinase selectivity in human PBMCs)) EUB0001619a MARK3; format: cell-based; conditions: PBMC, at 1 µM
[6] = target: Serine/threonine-protein kinase 26 (Homo sapiens, UniProt Q9P289); conditions: PBMC, at 1 µM
[7] = target: T2, Serine/threonine-protein kinase TBK1 (Homo sapiens) (UniProt Q9UHD2); experiment: Selectivity interaction (SelectScreen profiling (Invitrogen)) EUB0000607a TBK1; conditions: at 2 µM
T2 sequence (whole entry): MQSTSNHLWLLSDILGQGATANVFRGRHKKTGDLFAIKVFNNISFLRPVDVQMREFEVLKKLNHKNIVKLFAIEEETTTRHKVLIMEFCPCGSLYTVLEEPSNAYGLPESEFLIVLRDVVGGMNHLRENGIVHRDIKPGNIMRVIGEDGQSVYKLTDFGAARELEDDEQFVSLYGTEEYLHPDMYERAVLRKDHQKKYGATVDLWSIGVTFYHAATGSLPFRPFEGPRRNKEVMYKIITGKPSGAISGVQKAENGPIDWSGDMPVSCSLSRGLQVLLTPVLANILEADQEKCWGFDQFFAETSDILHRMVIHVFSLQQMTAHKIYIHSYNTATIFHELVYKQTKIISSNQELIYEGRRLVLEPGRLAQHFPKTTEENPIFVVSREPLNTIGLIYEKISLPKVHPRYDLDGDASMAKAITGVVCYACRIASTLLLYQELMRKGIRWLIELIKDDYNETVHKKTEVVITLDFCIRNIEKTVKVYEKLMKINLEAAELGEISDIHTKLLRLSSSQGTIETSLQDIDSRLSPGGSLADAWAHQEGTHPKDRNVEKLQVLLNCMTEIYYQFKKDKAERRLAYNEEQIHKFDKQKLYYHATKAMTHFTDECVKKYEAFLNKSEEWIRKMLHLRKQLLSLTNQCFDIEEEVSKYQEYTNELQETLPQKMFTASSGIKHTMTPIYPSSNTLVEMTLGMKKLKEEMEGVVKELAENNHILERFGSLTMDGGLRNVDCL

[8] = target: Casein kinase II subunit alpha (Homo sapiens, UniProt P68400); experiment: Selectivity interaction (KinomeScan (DiscoverX)) EUB0000666a CSNK2A1; conditions: at 10 µM
[9] = target: T3, cAMP-dependent protein kinase catalytic subunit PRKX (Homo sapiens) (UniProt P51817); experiment: Selectivity interaction (KinomeScan (DiscoverX)) EUB0000666a PRKX; conditions: at 10 µM
T3 sequence (whole entry): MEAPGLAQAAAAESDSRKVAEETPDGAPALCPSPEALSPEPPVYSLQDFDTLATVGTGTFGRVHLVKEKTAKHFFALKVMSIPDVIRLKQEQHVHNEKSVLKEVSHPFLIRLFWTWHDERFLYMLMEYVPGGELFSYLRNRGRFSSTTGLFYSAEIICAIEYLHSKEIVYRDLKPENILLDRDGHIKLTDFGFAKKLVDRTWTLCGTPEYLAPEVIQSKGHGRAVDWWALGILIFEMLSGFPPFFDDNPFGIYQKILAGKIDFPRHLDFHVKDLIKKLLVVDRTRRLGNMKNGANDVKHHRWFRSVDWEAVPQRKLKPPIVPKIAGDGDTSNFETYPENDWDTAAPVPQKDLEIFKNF

Sequence of DNA (cytosine-5)-methyltransferase 1 (Homo sapiens) (P26358 whole entry): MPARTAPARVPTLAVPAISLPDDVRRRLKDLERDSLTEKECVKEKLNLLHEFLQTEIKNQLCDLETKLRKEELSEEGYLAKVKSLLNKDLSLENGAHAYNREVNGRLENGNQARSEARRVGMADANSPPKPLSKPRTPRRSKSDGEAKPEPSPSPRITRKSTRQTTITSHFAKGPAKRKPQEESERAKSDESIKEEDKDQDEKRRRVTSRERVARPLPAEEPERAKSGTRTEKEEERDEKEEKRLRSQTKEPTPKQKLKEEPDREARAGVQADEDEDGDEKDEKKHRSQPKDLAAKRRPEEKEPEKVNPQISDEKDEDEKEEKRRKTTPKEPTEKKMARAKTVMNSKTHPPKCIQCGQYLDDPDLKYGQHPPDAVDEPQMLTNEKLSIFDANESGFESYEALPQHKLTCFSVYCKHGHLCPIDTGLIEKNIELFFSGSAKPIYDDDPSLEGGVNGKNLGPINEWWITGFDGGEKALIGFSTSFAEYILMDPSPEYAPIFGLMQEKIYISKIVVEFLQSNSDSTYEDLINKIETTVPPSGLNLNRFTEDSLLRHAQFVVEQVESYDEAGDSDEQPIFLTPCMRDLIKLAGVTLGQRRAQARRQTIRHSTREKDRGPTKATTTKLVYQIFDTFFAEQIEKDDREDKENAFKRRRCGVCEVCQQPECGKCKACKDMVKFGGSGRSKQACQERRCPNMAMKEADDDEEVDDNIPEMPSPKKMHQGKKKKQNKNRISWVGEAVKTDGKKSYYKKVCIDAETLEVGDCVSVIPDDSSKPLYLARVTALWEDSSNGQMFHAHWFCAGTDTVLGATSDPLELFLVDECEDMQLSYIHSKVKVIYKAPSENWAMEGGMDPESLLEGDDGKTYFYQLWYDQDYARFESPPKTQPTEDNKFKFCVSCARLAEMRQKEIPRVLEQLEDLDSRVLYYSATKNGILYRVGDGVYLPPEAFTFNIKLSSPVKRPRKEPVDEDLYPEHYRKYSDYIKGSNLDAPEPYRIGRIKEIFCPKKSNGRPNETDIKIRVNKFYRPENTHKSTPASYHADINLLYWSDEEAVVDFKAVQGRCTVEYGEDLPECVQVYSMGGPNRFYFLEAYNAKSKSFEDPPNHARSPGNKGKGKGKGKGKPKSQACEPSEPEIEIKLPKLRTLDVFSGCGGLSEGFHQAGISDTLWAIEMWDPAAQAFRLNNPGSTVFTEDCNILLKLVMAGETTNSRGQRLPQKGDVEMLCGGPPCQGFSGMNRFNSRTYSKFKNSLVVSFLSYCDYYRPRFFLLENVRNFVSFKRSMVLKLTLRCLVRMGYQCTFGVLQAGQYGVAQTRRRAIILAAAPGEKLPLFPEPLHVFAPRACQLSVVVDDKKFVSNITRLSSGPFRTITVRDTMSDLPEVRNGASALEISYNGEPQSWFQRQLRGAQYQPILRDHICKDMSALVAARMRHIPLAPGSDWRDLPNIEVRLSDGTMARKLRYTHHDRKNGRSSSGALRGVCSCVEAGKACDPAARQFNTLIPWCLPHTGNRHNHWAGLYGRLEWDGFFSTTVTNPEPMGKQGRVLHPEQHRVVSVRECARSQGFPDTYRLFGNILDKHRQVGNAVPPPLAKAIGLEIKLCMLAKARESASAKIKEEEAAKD
Sequence of Casein kinase II subunit alpha (P68400 whole entry, looked up): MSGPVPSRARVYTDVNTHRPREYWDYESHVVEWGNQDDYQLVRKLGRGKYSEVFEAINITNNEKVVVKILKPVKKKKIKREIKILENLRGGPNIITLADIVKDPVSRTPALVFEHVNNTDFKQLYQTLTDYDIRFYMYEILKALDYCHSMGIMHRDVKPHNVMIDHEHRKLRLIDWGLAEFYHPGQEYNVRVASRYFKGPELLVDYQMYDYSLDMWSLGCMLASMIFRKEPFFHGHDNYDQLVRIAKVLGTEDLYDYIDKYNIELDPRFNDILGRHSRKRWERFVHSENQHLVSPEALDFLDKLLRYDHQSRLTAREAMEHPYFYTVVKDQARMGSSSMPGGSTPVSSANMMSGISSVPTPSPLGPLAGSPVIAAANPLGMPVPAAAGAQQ
Sequence of Serine/threonine-protein kinase PAK 2 (Homo sapiens) (Q13177 whole entry): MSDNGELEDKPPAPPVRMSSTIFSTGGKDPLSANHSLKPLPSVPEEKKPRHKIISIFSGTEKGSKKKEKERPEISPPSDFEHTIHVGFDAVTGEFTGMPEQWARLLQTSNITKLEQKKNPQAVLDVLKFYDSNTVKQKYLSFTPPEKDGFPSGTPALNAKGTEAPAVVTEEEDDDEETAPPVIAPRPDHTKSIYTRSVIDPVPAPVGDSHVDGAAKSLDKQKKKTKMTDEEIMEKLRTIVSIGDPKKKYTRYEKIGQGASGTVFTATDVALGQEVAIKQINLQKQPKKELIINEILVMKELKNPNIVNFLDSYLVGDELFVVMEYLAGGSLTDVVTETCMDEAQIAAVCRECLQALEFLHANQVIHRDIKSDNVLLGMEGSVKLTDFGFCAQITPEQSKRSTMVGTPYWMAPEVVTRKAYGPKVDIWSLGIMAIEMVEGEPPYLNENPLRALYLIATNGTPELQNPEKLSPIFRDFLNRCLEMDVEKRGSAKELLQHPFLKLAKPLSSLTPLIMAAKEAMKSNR
Sequence of Serine/threonine-protein kinase 26 (Q9P289 2-416 limits assumed): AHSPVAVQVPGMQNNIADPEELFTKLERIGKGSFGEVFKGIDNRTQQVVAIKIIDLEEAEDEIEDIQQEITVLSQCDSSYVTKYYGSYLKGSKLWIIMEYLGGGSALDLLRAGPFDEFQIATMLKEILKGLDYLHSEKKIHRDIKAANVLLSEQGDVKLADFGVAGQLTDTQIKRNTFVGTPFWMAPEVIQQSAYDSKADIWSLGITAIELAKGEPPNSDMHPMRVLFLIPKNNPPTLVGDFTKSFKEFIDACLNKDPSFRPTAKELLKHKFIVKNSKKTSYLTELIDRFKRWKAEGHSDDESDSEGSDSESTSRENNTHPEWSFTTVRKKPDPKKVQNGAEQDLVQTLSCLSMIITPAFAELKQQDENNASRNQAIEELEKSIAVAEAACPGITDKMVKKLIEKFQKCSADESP
Sequence of Serine/threonine-protein kinase RIO2 (Homo sapiens) (Q9BVS4 whole entry, looked up): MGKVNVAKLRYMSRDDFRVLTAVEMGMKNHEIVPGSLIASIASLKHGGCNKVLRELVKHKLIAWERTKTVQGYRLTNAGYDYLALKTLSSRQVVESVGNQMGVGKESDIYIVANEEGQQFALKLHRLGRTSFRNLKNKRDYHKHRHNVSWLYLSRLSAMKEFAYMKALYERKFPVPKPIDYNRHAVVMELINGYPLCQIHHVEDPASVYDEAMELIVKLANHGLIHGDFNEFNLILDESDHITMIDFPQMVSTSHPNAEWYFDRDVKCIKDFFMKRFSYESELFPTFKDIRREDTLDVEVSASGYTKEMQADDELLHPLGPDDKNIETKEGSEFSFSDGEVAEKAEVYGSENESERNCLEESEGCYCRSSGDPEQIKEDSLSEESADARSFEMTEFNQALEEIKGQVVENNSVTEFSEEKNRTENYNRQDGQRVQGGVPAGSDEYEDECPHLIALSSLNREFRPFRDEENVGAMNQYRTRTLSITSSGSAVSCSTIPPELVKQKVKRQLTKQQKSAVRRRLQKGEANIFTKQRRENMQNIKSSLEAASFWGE
Sequence of MAP/microtubule affinity-regulating kinase 3 (Homo sapiens) (P27448 whole entry, looked up): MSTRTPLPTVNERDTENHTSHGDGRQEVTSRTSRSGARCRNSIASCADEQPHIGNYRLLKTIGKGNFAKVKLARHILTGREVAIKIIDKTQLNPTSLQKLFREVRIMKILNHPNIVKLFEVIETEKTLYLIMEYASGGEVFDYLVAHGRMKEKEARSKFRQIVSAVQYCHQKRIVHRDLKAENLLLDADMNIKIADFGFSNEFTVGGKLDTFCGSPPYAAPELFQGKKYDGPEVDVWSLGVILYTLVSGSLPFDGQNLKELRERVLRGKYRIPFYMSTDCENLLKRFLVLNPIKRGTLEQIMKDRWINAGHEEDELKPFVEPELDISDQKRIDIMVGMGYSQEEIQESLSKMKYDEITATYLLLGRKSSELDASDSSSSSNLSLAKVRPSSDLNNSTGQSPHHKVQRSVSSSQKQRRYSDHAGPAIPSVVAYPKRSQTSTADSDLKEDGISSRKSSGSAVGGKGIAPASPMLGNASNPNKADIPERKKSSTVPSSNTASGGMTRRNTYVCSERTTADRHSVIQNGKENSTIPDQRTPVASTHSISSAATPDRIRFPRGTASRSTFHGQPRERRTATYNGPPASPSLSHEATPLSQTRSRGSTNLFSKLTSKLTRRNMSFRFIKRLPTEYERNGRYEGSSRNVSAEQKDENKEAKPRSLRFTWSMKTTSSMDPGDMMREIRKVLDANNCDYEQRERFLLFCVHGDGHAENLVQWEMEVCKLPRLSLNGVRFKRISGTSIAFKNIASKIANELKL

SMILES: Cc1cc([C@@H](C)Nc2ccccc2C(=O)O)c2nc(N3CCOCC3)cc(=O)n2c1 [AZD-6482]
% of control [1]: 54%

% of activity ([2]; at 1 µM): 98.7%
% of activity ([2]; at 10 µM): 104%
SMILES: Cc1cc(C)cc([C@H]2c3cc(C)ccc3NC(=O)CN2C(=O)c2ccc(Br)s2)c1

SMILES: CCC(=O)N1CCN(c2ccc(-n3c(=O)ccc4cnc5ccc(-c6cnc7ccccc7c6)cc5c43)cc2C(F)(F)F)CC1
% of control [3]: 100%

SMILES: C=CC(=O)Nc1cc(-n2c(=O)ccc3cnc4ccc(-c5ccc(NS(C)(=O)=O)cc5)cc4c32)ccc1C
% of control ([4]; at 1 µM): 80%
% of control ([4]; at 10 µM): 100%

SMILES: N#Cc1cccc(-c2c[nH]c3ncnc(N4CCOCC4)c23)c1
% of inhibition [5]: 24%
% of inhibition [6]: 61%

SMILES: CNC(=O)Nc1ccc(-c2nc(N3CC4CCC(C3)O4)c3cnn(C4CCC5(CC4)OCCO5)c3n2)cc1
% of inhibition [7]: 2%

SMILES: O=C(NOC[C@H](O)CO)c1ccc(F)c(F)c1Nc1ccc(I)cc1F
% of control [8]: 77%
% of control [9]: 100%
